Key:
VIM-1 = VIM-1 (Pseudomonas aeruginosa (strain ATCC 15692 / DSM 22644 / CIP 104116 / JCM 14847 / LMG 12228 / 1C / PRS 101 / PAO1), UniProt A0A0F7KYQ8); experiment: biochemical; conditions: CCF2-FA substrate, 2 hours at 25° C
Procedure, shortened: (§1)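 Class B activity is measured in the presence of compound by fluorescence with CCF2-FA after a 2-hour incubation at 25° C. IC50 is taken from a 4-parameter fit of semi-logarithmic dose-response data.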

NDM-1 = NDM-1 (Klebsiella pneumoniae, UniProt C7C422); experiment: biochemical; type: biochemical; conditions: CCF2-FA substrate, 2 hours at 25° C; read-out: NDM-1 IC50
NDM-1, sequence (C7C422 whole entry, looked up, species assumed): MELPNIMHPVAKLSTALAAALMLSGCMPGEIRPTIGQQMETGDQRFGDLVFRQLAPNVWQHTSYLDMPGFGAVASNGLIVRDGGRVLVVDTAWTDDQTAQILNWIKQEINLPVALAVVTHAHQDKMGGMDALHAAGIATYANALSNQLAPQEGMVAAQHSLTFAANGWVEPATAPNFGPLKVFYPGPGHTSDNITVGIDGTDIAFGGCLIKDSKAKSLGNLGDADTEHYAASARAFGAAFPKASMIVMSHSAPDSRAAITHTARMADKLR
Procedure, shortened: as §1

IMP-1 = IMP-1 (Serratia marcescens, UniProt P52699); experiment: biochemical; type: biochemical; conditions: CCF2-FA substrate, 2 hours at 25° C; read-out: IMP-1 IC50
IMP-1, sequence (P52699 whole entry, looked up, species assumed): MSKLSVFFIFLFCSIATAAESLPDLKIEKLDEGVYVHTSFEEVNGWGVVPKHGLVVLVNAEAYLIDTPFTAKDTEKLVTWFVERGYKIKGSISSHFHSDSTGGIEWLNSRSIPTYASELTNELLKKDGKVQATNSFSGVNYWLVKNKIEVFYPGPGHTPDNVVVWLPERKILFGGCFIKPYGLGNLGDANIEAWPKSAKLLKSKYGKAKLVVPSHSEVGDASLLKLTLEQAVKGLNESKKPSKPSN
Procedure, shortened: as §1

[1] = test system: P. aeruginosa expressing IMP-1, efflux+ (MB9798); type: cell-based, Pseudomonas aeruginosa; conditions: for P. aeruginosa expressing IMP-1, efflux+ (MB9798) MITC95: imipenem at 2 μg/mL, in the presence of a class A, C, D serine β-lactamase inhibitor closely related to relebactam; for Efflux ratio: ratio MITC95 PA_9798/MITC95 PA_9799
Description: (§2) The strain background is Pseudomonas aeruginosa PAO1.

[2] = test system: P. aeruginosa expressing IMP-1, efflux− (MB9799); experiment: Efflux: concentration of MBL inhibitor which restores susceptibility to imipenem; type: cell-based, Pseudomonas aeruginosa; conditions: imipenem at 2 μg/mL, in the presence of a class A, C, D serine β-lactamase inhibitor closely related to relebactam
Description: as §2

[3] = test system: Escherichia coli expressing NDM-1 (CLB30005, CLB30016); type: cell-based; conditions: with imipenem 1 μg/ml; 95% inhibition of bacterial growth
Procedure, shortened: (§3)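 Clinical strains grown overnight on blood agar, then diluted 1:100 in 1.1× CAMHB and exposed to test compound with imipenem at 1 μg/ml. Incubation was 22–24 h at 35° C; growth was read by absorbance to find the compound concentration restoring imipenem susceptibility.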

[4] = test system: Serratia marcescens expressing IMP-1 (CL5741); type: cell-based; conditions: with imipenem 1 μg/ml; 95% inhibition of bacterial growth
Procedure, shortened: as §3

[5] = test system: Klebsiella pneumoniae expressing VIM-1 (IHMA599644); type: cell-based; conditions: with imipenem 1 μg/ml; 95% inhibition of bacterial growth
Procedure, shortened: as §3

| Compound | IC50 (VIM-1) [nM] | IC50 (NDM-1) [nM] | IC50 (IMP-1) [nM] | P. aeruginosa expressing IMP-1, efflux+ (MB9798) MITC95 [1] [µM] | Efflux ratio [1] | P. aeruginosa expressing IMP-1, efflux− (MB9799) MITC95 [2] [µM] | Escherichia coli expressing NDM-1 (CLB30016) MITC95 [3] [µM] | Serratia marcescens expressing IMP-1 (CL5741) MITC95 [4] [µM] | Klebsiella pneumoniae expressing VIM-1 (IHMA599644) MITC95 [5] [µM] |
| --- | --- | --- | --- | --- | --- | --- | --- | --- | --- |
| NS(=O)(=O)c1c(S(=O)(=O)C2CNC2)ccc(C2=CCS(=O)(=O)CC2)c1-c1nn[nH]n1 [Example 218, 6-(azetidin-3-ylsulfonyl)-3-(1,1-dioxido-3,6-dihydro-2H-thiopyran-4-yl)-2-(2H-tetrazol-5-yl) benzenesulfonamide] | 2.23 | 1.75 | 3.55 | 12.5 | 8.00 | 1.563 | 0.3906 | 1.563 | 3.125 |
| Nc1ncccc1-c1ccc(S(=O)(=O)C2CNC2)c(S(N)(=O)=O)c1-c1nn[nH]n1 [Example 219, 3-(2-aminopyridin-3-yl)-6-(azetidin-3-ylsulfonyl)-2-(2H-tetrazol-5-yl) benzenesulfonamide] | 0.52 | 0.647 | 5.66 | 6.25 | 4.88 | 1.281 | 0.125 | 0.6406 | 1.281 |
| NS(=O)(=O)c1c(S(=O)(=O)C2CNC2)ccc(-c2cccnc2N2CCOCC2)c1-c1nn[nH]n1 [Example 220, 6-(azetidin-3-ylsulfonyl)-3-(2-morpholinopyridin-3-yl)-2-(2H-tetrazol-5-yl) benzenesulfonamide] | 0.337 | 0.901 | 14.9 | 100 | 32.00 | 3.125 | 6.25 | 12.5 | 12.5 |
| N=C(N)Nc1ccccc1-c1ccc(S(=O)(=O)C2CNC2)c(S(N)(=O)=O)c1-c1nn[nH]n1 [Example 221, 4-(azetidin-3-ylsulfonyl)-2′-guanidino-2-(2H-tetrazol-5-yl)-[1,1′-biphenyl]-3-sulfonamide] | 6.95 | 5.13 | 44 | 50 | 16.00 | 3.125 | 6.25 | 12.5 | 12.5 |
| NS(=O)(=O)c1c(S(=O)(=O)C2CNC2)ccc(C2CCOCC2)c1-c1nn[nH]n1 [Example 222, 6-(azetidin-3-ylsulfonyl)-3-(tetrahydro-2H-pyran-4-yl)-2-(2H-tetrazol-5-yl)benzenesulfonamide] | 2.45 | 1.49 | 4.3 | 100 | 63.98 | 1.563 | 3.125 | 3.125 | 3.125 |
| Nc1cccc(-c2ccc(S(=O)(=O)C3CNC3)c(S(N)(=O)=O)c2-c2nn[nH]n2)n1 [Example 223, 3-(6-aminopyridin-2-yl)-6-(azetidin-3-ylsulfonyl)-2-(2H-tetrazol-5-yl)benzenesulfonamide] | 3.16 | 2.51 | 10.2 | 6.25 | 2.00 | 3.125 | 0.7813 | 3.125 | 6.25 |

Source: patent publication US10227331B2 (priority 2015, dated 2019)
